Measured values from US20040096356A1, “Assay device for determining analytes in a liquid dairy product” (priority 1997, published 2004).

Target: T1, enzyme R39 (soluble exocellular D-alanyl-D-alanine carboxypeptidase produced by Actinomadura R39) (Actinomadura sp., UniProt P39045)
T1 construct: soluble exocellular D-alanyl-D-alanine carboxypeptidase produced by Actinomadura R39, obtained by the procedure described in J.-M. Frere et al; made in house; host or cells: Actinomadura R39 (natural producer, secreted enzyme)
Assay: Test 1, rapid test (5 minutes): strip test for β-lactam antibiotics in milk using enzyme R39
Type: binding
Details: for Intensity 1st band: scale 0 to 10, reference band 6, 47° C., 3 min incubation + 2 min migration
Procedure: The identifier used in this example is soluble exocellular D-alanyl-D-alanine carboxypeptidase produced by Actinomadura R39, obtained by the procedure described in J.-M. Frere et al., Antimicrobial Agents and Chemotherapy, 18(4), 506-510 (1980).
250 μl of an aqueous solution of enzyme R39 having a concentration of 1 mg/ml are dialysed for 24 hours against 500 ml of HNM buffer (Hepes 10 mM, pH 8, NaCl 10 mM, MgCl2 5 mM). To this dialysed solution of enzyme R39 are then added 2 ml of bicarbonate buffer (0.1 M sodium bicarbonate, pH 9) and 250 μl of a solution of N-hydroxysuccinimide 6-(biotinamido)caproic ester having a concentration of 5 mg/ml in anhydrous DMF. This solution is stirred gently in the LABINCO stirrer for tubes on a rotary axis (available from VEL, Belgium) at a rate of 2 revolutions/minute for 3 hours at room temperature and away from light. The solution thus obtained is dialysed against the HNM buffer ([…]) for 24 hours. In this way a solution of biotinylated enzyme R39 is obtained which is diluted in HNM-BSA buffer (Hepes 500 mM; pH 8, NaCl 500 mM, MgCl2 250 mM, BSA 10 mg/ml) to a concentration of 100 μg of enzyme R39 per ml of buffer. This solution is stored at −20° C.
As the marker use is made of particles of gold having a diameter of 40 nm on which a goat anti-biotin antibody has been deposited in the form of suspensions in a 2 mM aqueous sodium tetraborate solution, with a pH of 7.2, stabilized by 0.1% of sodium azide (available from British Biocell (Ref. GAB40)). The optical density of these suspensions at 520 nm is approximately 10 and the protein concentration is approximately 24 μg/ml.
The biotinylated enzyme R39 solution prepared in Example 2.2.1 is diluted 25 times with the HNM-BSA buffer (Hepes 500 mM, pH 8, NaCl 500 mM, MgCl2 250 mM, BSA 10 mg/ml). At room temperature, 17.5 parts by volume of this dilute biotinylated enzyme R39 solution, 9.27 parts by volume of the gold particle suspension used to label the enzyme R39 and 6 parts by volume of reference gold particle suspension are mixed (see Example 2.3).
The first capture substance makes it possible to fix the identifiers coupled with the free markers present in excess relative to the quantity of antibiotic present in the sample.
Assay devices containing membranes (2), (3) and (4) are used, assembled in accordance with the procedure described in Example 1.1. The membrane (3) of these devices carries on the proximal side the capture substance described in Example 2.4.1. and on the distal side the capture substance described in Example 2.4.2. The capture substances were deposited in accordance with the procedure described in Example 1.2.
Seven samples of milk are prepared, containing 0; 2; 4; 5; 6; 8 and 10 ppb, respectively, of penicillin G. Each of these solutions is then analysed as follows.
An aliquot is taken of 200 μl of milk sample and […] of solution A prepared in Example 2.2.3, and is placed in an Eppendorf tube. This mixture is incubated at 47° C. for 3 minutes. An assay device is then placed vertically in the Eppendorf tube such that the first end of the assay device is in contact with the mixture. The mixture is allowed to migrate over the assay device while the assembly is incubated at 47° C. for 2 minutes.
An intensity value ranging from 0 to 10 is awarded to the bands detected, the value 10 being given to the most intense band and the value 0 being given to the least intense band. On this scale, a value 6 is awarded to the reference band. The intensity of the signal observed in the first detection band is inversely proportional to the quantity of penicillin G present in the sample.
In this example, the test is considered to be positive when the first band has an intensity which is lower than that of the reference band. The results shown in Table 1 indicate that this test makes it possible to detect in 5 minutes down to 4 ppb of penicillin G in a milk sample.

T1 sequence (P39045 50-515): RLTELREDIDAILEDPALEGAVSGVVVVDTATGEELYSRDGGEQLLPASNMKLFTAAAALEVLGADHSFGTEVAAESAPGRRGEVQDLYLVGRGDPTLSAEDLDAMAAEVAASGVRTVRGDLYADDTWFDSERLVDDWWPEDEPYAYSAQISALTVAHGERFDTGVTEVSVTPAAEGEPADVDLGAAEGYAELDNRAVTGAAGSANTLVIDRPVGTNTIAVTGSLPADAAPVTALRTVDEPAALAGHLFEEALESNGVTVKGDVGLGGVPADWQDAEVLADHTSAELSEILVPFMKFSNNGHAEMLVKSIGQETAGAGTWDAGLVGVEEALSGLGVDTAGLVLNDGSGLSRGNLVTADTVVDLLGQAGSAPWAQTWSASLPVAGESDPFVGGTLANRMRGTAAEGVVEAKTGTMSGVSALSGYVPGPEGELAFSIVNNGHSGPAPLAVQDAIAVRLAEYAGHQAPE

For `CC1(C)S[C@@H]2[C@H](NC(=O)Cc3ccccc3)C(=O)N2[C@H]1C(=O)O` [Penicillin G, penicillin G], the “Intensity 1st band” value (2 ppb penicillin G in milk) was 8, the “Intensity 1st band” value (4 ppb penicillin G in milk) was 5 and the “Intensity 1st band” value (5 ppb penicillin G in milk) was 3. For the same compound, the “Intensity 1st band” value (6 ppb penicillin G in milk) was 2, the “Intensity 1st band” value (8 ppb penicillin G in milk) was 1 and the “Intensity 1st band” value (10 ppb penicillin G in milk) was 0. The “lowest concentration detected in a milk sample” value (in 5 minutes, positive when first band is less intense than reference band) was 4 ppb.
